Experimental data taken from ChEMBL document CHEMBL1201862, “PubChem BioAssay data set” (2004).
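These data come from cells grown in 96-well plates and exposed to compound for 48 hours at five concentrations. GI50 is the concentration that inhibits growth by half.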 Active and inactive are the calls of the source. No stated cut-off is given here; in the data, active = GI50 up to about 1.1 µM and inactive = higher.

Assays:
Assay in all cases: NCI-60 cell line screen, 48 h
HL-60 = test system: HL-60
KM-20L2 = test system: KM-20L2
LXFL 529 = test system: LXFL 529
Malme-3M = test system: Malme-3M
NCI-H460 = test system: NCI-H460
SF-295 = test system: SF-295
SF-539 = test system: SF-539
SNB-19 = test system: SNB-19
SW-620 = test system: SW-620
U-251 = test system: U-251
CAKI-1 = test system: CAKI-1
DLD-1 = test system: DLD-1
LOX IMVI = test system: LOX IMVI
M19-MEL = test system: M19-MEL
OVCAR-5 = test system: OVCAR-5
SNB-78 = test system: SNB-78
BT-549 = test system: BT-549
MDA-MB-231 = test system: MDA-MB-231
MDA-N = test system: MDA-N
PC-3 = test system: PC-3

Structure (SMILES)	GI50 (HL-60)	GI50 (KM-20L2)	GI50 (LXFL 529)	GI50 (Malme-3M)	GI50 (NCI-H460)	GI50 (SF-295)	GI50 (SF-539)	GI50 (SNB-19)	GI50 (SW-620)	GI50 (U-251)	GI50 (CAKI-1)	GI50 (DLD-1)	GI50 (LOX IMVI)	GI50 (M19-MEL)	GI50 (OVCAR-5)	GI50 (SNB-78)	GI50 (BT-549)	GI50 (MDA-MB-231)	GI50 (MDA-N)	GI50 (PC-3)
O=C(NN1C(=O)C(Cl)C1c1ccccc1O)c1ccccc1O (stereo unspecified)	6.11 µM (inactive)	4.51 µM (inactive)	41.4 µM (inactive)	13.9 µM (inactive)	5.33 µM (inactive)	26.8 µM (inactive)	16.3 µM (inactive)	0.365 µM (active)	32.7 µM (inactive)	16.2 µM (inactive)										
Cc1nc2ccccc2c(=O)n1Nc1ccc(C(=O)O)cc1	> 100 µM (inactive)	> 100 µM (inactive)		> 100 µM (inactive)	> 100 µM (inactive)	> 100 µM (inactive)	> 100 µM (inactive)	> 100 µM (inactive)	> 100 µM (inactive)	> 100 µM (inactive)	> 100 µM (inactive)	> 100 µM (inactive)	> 100 µM (inactive)	> 100 µM (inactive)	> 100 µM (inactive)	> 100 µM (inactive)				
C=C(C)[C@@H]1CC[C@@H]2C(=CC[C@]3(C)C([C@H](C)CC/C=C(/C)C(=O)O)CC[C@@]23C)[C@@]1(C)CCC(=O)O (stereo partly specified)	26.8 µM (inactive)			25.5 µM (inactive)	20.4 µM (inactive)	30.3 µM (inactive)	30.4 µM (inactive)	34 µM (inactive)	29 µM (inactive)	24.5 µM (inactive)	23.8 µM (inactive)		19.2 µM (inactive)		30.5 µM (inactive)		21.6 µM (inactive)	25.2 µM (inactive)	28.3 µM (inactive)	24.9 µM (inactive)
COc1cccc2c(Nc3ccc(S(=O)(=O)Nc4ncccn4)cc3)c3ccc([N+](=O)[O-])cc3nc12	10.4 µM (inactive)			12.9 µM (inactive)	27.7 µM (inactive)	> 100 µM (inactive)	37.8 µM (inactive)	> 100 µM (inactive)	63.8 µM (inactive)	48.5 µM (inactive)	4.8 µM (inactive)		30.6 µM (inactive)		> 100 µM (inactive)		59.7 µM (inactive)	38.7 µM (inactive)	54.5 µM (inactive)	40.6 µM (inactive)
CC(C)C(=O)/C=C/c1c(Cl)cccc1Cl	5.36 µM (inactive)			4.45 µM (inactive)	2.18 µM (inactive)	11.6 µM (inactive)	3.04 µM (inactive)	10.8 µM (inactive)	2.98 µM (inactive)	3.82 µM (inactive)	3.47 µM (inactive)		2.47 µM (inactive)		3.21 µM (inactive)		2.64 µM (inactive)	4.28 µM (inactive)	3.05 µM (inactive)	11.5 µM (inactive)
O=C1C(Br)=CC2([N+](=O)[O-])CCNC3=C(C4=NCCc5c[nH]c(c54)C3=O)C2=C1Br (stereo unspecified)	0.206 µM (active)	0.414 µM (active)			3.39 µM (inactive)	1.91 µM (inactive)	2.11 µM (inactive)	2.81 µM (inactive)	0.0497 µM (active)	1.51 µM (inactive)	1.49 µM (inactive)	0.364 µM (active)	1.56 µM (inactive)		1.1 µM (active)	2.09 µM (inactive)				
CCCN(CCC)c1cc2c(cc1F)c(=O)c(C(=O)O)cn2-c1ccc(N2CCN(C)CC2)cn1	6.18 µM (inactive)			13.3 µM (inactive)	17.5 µM (inactive)	17.8 µM (inactive)	17.1 µM (inactive)	15.3 µM (inactive)	16.2 µM (inactive)	25.5 µM (inactive)	15.3 µM (inactive)		3 µM (inactive)		18.8 µM (inactive)		10.7 µM (inactive)	13.5 µM (inactive)	20.1 µM (inactive)	19 µM (inactive)
Cc1c2cnccc2c(C)c2c1c1ccccc1n2CC1CO1 (stereo unspecified)	0.0283 µM (active)	1.3 µM (inactive)		1.75 µM (inactive)	0.454 µM (active)	1.33 µM (inactive)	1.21 µM (inactive)	2.04 µM (inactive)	0.345 µM (active)	1.6 µM (inactive)	1.34 µM (inactive)	1.55 µM (inactive)	0.393 µM (active)	1.31 µM (inactive)	2.05 µM (inactive)	1.83 µM (inactive)				
CN1NC(c2ccc(Cl)cc2)=C(C#N)C(=O)CC1c1ccccc1 (stereo unspecified)	> 100 µM (inactive)	> 100 µM (inactive)	> 100 µM (inactive)		> 100 µM (inactive)	> 100 µM (inactive)		> 100 µM (inactive)	> 100 µM (inactive)	> 100 µM (inactive)	> 100 µM (inactive)	> 100 µM (inactive)	> 100 µM (inactive)		> 100 µM (inactive)					
O=C(Cc1nc2ccc(C(=O)c3ccccc3)cc2nc1O)C(=O)Nc1nc2ccccc2[nH]1	35.8 µM (inactive)	63.5 µM (inactive)	45.2 µM (inactive)	87.9 µM (inactive)	46.5 µM (inactive)	28.4 µM (inactive)	71 µM (inactive)	> 100 µM (inactive)	42.9 µM (inactive)		40.2 µM (inactive)		44 µM (inactive)	56.1 µM (inactive)						
CN1CCC(C(O)(c2ccccc2)c2ccc(Br)cc2)CC1 (stereo unspecified)	20.4 µM (inactive)			14.5 µM (inactive)	23.4 µM (inactive)	17.9 µM (inactive)	17.6 µM (inactive)	45.2 µM (inactive)	21.4 µM (inactive)	17.7 µM (inactive)	14 µM (inactive)		15.8 µM (inactive)		21.2 µM (inactive)		> 100 µM (inactive)	14.7 µM (inactive)	15 µM (inactive)	22.2 µM (inactive)
CCOC(=O)C(Cc1ccc(N=NN(C)C)cc1)NC(=O)CC1c2ccccc2-c2ccccc21 (stereo unspecified)	> 100 µM (inactive)		50.5 µM (inactive)	> 100 µM (inactive)	71.6 µM (inactive)	> 100 µM (inactive)	> 100 µM (inactive)	> 100 µM (inactive)	> 100 µM (inactive)	39.7 µM (inactive)	> 100 µM (inactive)	48.1 µM (inactive)	85.3 µM (inactive)	49.3 µM (inactive)	> 100 µM (inactive)					
COC(=O)c1cccc(N[C@@H]2c3cc4c(cc3C(c3cc(OC)c(O)c(OC)c3)[C@H]3C(=O)OCC32)OCO4)c1 (stereo partly specified)	0.149 µM (active)	2.75 µM (inactive)		2.33 µM (inactive)	0.0351 µM (active)	0.543 µM (active)	0.528 µM (active)	0.755 µM (active)	1.97 µM (inactive)	1.05 µM (active)	0.321 µM (active)	1.89 µM (inactive)	0.859 µM (active)	1.28 µM (inactive)	6.67 µM (inactive)	3.67 µM (inactive)				
CC(C)[C@](O)(C(=O)OCC1=CCN2CC[C@@H](O)[C@@H]12)[C@H](C)O	> 375 µM (inactive)	> 375 µM (inactive)		> 375 µM (inactive)	> 367 µM (inactive)	> 375 µM (inactive)	> 375 µM (inactive)	> 375 µM (inactive)	> 237 µM (inactive)	> 375 µM (inactive)	> 375 µM (inactive)	> 375 µM (inactive)	> 174 µM (inactive)	> 255 µM (inactive)	> 278 µM (inactive)	> 375 µM (inactive)				
